Measured values as given in patent publication US20070004653A1, “Stable lyophilized anthracycline glycosides” (priority 2005, published 2007).
Read-outs that look alike come from different tables or passages of the source.

What was measured:
[1] = cited from earlier work
[2] = Stability tests of Idarubicin HCl, 1% w/v aqueous solution, pH varied with NH4OH or HCl or dissolved as is (aglycone, bis-anhydro); assay type: physicochemical; details: for % aglycone / % bis-anhydro: 1% w/v aqueous solution
Method: Starting product was idarubicin hydrochloride, 1% w/v aqueous solution, the analysis of which is shown in the data reported at t=0. 3% mol of NH4OH with respect to idarubicin hydrochloride was added to the solution at t=0 and the solution was incubated at 20° C. for the indicated time. The results in table 1 show the expected rise over time of the bis-anhydro degradation product at high pH (6.69), with very little increase of aglycone.
Starting product was idarubicin hydrochloride, 1% w/v aqueous solution, the analysis of which is shown in the data reported at t=0. 1% mol of NH4OH with respect to idarubicin hydrochloride was added to the solution at t=0 and the solution was incubated at 20° C. for the indicated time.
Starting product was idarubicin hydrochloride, 1% w/v aqueous solution, the analysis of which is shown in the data reported at t=0. 3% mol of NH4OH with respect to idarubicin hydrochloride was added to the solution at t=0 and the solution was incubated at 4° C. for the indicated time.
Starting product was idarubicin hydrochloride, 1% w/v aqueous solution, the analysis of which is shown in the data reported at t=0.1% mol of NH4OH with respect to idarubicin hydrochloride was added to the solution at t=0 and the solution was incubated at 4° C. for the indicated time.
Starting product was idarubicin hydrochloride, 1% w/v aqueous solution, the analysis of which is shown in the data reported at t=0. The solution was incubated for the indicated time at 20° C. without additional chemicals. The results in table 5 show the expected rise in bis-anhydro content.
Starting product was idarubicin hydrochloride, 1% w/v aqueous solution, the analysis of which is shown in the data reported at t=0. The solution was incubated for the indicated time at 4° C. without the addition of additional chemicals.The results in table 6 show a rise in bis-anhydro content, even at 4° C.
Starting product was idarubicin hydrochloride, 1% w/v aqueous solution. At t=0, the pH of the solution was lowered by the addition of 1% mol of HCl with respect to idarubicin hydrochloride. The solution was incubated for the indicated time at 20° C.
Starting product was idarubicin hydrochloride, 1% w/v aqueous solution. At t=0, the pH of the solution was lowered by the addition of 1% mol of HCl with respect to idarubicin hydrochloride. The solution was incubated for the indicated time at 4° C.
Starting product was idarubicin hydrochloride, 1% w/v aqueous solution. At t=0, the pH of the solution was lowered to 3.6 by the addition of 1.3% mol of HCl with respect to idarubicin hydrochloride. The solution was then incubated for the indicated time at 20° C.
Starting product was idarubicin hydrochloride, 1% w/v aqueous solution. At t=0, the pH of the solution was lowered to 3.55 by the addition of 1.5% mol of HCl with respect to idarubicin hydrochloride. The solution was then incubated for the indicated time at 20° C.
Starting product was idarubicin hydrochloride, 1% w/v aqueous solution. At t=0, the pH of the solution was lowered to 3.50 by the addition of 1.7% mol of HCl with respect to idarubicin hydrochloride.
Starting product was idarubicin hydrochloride, 1% w/v aqueous solution. At t=0, the pH of the solution was lowered to 3.03 by the addition of 6.5% mol of HCl with respect to idarubicin hydrochloride.
Starting product was idarubicin hydrochloride, 1% w/v aqueous solution. At t=0, the pH of the solution was lowered to 2.18 by the addition of 48% mol of HCl with respect to idarubicin hydrochloride.

[3] = HCl 1% mol, pH 3.91, 4° C., 169 hr
[4] = HCl 1% mol, pH 3.91, 4° C., 407 hr
[5] = HCl 1% mol, pH 3.91, 20° C., 28 hr
[6] = HCl 1% mol, pH 3.91, 20° C., 168 hr
[7] = HCl 1% mol, pH 3.91, 20° C., 406 hr
[8] = HCl to pH = 2.18 (extra HCl = 48% mol), 4° C., 30 hr
[9] = HCl to pH = 2.18 (extra HCl = 48% mol), 4° C., 119 hr
[10] = HCl to pH = 2.18 (extra HCl = 48% mol), 20° C., 27 hr
[11] = HCl to pH = 2.18 (extra HCl = 48% mol), 20° C., 118 hr
[12] = HCl to pH = 3.03 (extra HCl = 6.5% mol), 20° C., 366 hr
[13] = HCl to pH = 3.50 (extra HCl = 1.7% mol), 20° C., 366 hr
[14] = HCl to pH = 3.55 (extra HCl = 1.5% mol), 20° C., 366 hr
[15] = HCl to pH = 3.60 (extra HCl = 1.3% mol), 20° C., 366 hr
[16] = NH3 1% mol, pH 6.56, 4° C., 34 hr
[17] = NH3 1% mol, pH 6.56, 4° C., 56 hr
[18] = NH3 1% mol, pH 6.56, 4° C., 149 hr
[19] = NH3 1% mol, pH 6.56, 20° C., 29 hr
[20] = NH3 1% mol, pH 6.56, 20° C., 54 hr
[21] = NH3 1% mol, pH 6.56, 20° C., 146 hr
[22] = NH3 3% mol, pH 6.69, 4° C., 28 hr
[23] = NH3 3% mol, pH 6.69, 4° C., 129 hr
[24] = NH3 3% mol, pH 6.69, 20° C., 25 hr
[25] = NH3 3% mol, pH 6.69, 20° C., 122 hr
[26] = dissolved as is, pH 5.66, 4° C., 31 hr
[27] = dissolved as is, pH 5.66, 4° C., 154 hr
[28] = dissolved as is, pH 5.66, 20° C., 26 hr
[29] = dissolved as is, pH 5.66, 20° C., 57 hr
[30] = dissolved as is, pH 5.66, 20° C., 148 hr

## CC(=O)[C@]1(O)Cc2c(O)c3c(c(O)c2[C@@H](O[C@H]2C[C@@H](N)[C@H](O)C(C)O2)C1)C(=O)c1ccccc1C3=O.Cl (stereo partly shown) [Idarubicin HCl, Idarubicin hydrochloride]
[1]; in acetone, chloroform, and methylene chloride
  solubility: practically insoluble
[1]; in water, methanol, and other polar solvents like dimethylformamide
  solubility: soluble
[1]; in water
  solubility: not very soluble
[2]; HCl 1% mol, pH 3.91, 4° C., 33 hr
  % aglycone: 0.57%
[2]; [3]
  % aglycone: 0.58%
  % bis-anhydro: 0.06%
[2]; [4]
  % aglycone: 0.58%
  % bis-anhydro: 0.05%
[2]; HCl 1% mol, pH 3.91, 4° C., t = 0
  % aglycone: 0.59%
[2]; [5]
  % aglycone: 0.57%
  % bis-anhydro: 0.04%
[2]; [6]
  % aglycone: 0.58%
  % bis-anhydro: 0.09%
[2]; [7]
  % aglycone: 0.59%
  % bis-anhydro: 0.25%
[2]; HCl 1% mol, pH 3.91, 20° C., t = 0
  % aglycone: 0.59%
[2]; [8]
  % aglycone: 0.61%
  % bis-anhydro: 0.06%
[2]; [9]
  % aglycone: 0.63%
  % bis-anhydro: 0.06%
[2]; HCl to pH = 2.18 (extra HCl = 48% mol), 4° C., t = 0
  % aglycone: 0.59%
[2]; [10]
  % aglycone: 0.72%
  % bis-anhydro: 0.06%
[2]; [11]
  % aglycone: 1.03%
  % bis-anhydro: 0.06%
[2]; HCl to pH = 2.18 (extra HCl = 48% mol), 20° C., t = 0
  % aglycone: 0.59%
[2]; HCl to pH = 3.03 (extra HCl = 6.5% mol), 4° C., 29 hr
  % aglycone: 0.61%
[2]; HCl to pH = 3.03 (extra HCl = 6.5% mol), 4° C., 80 hr
  % aglycone: 0.61%
[2]; HCl to pH = 3.03 (extra HCl = 6.5% mol), 4° C., 364 hr
  % aglycone: 0.61%
[2]; HCl to pH = 3.03 (extra HCl = 6.5% mol), 4° C., t = 0
  % aglycone: 0.59%
[2]; HCl to pH = 3.03 (extra HCl = 6.5% mol), 20° C., 22 hr
  % aglycone: 0.62%
[2]; HCl to pH = 3.03 (extra HCl = 6.5% mol), 20° C., 76 hr
  % aglycone: 0.63%
[2]; HCl to pH = 3.03 (extra HCl = 6.5% mol), 20° C., 124 hr
  % aglycone: 0.65%
[2]; [12]
  % aglycone: 0.77%
  % bis-anhydro: 0.04%
[2]; HCl to pH = 3.03 (extra HCl = 6.5% mol), 20° C., t = 0
  % aglycone: 0.59%
[2]; HCl to pH = 3.50 (extra HCl = 1.7% mol), 20° C., 22 hr
  % aglycone: 0.59%
[2]; HCl to pH = 3.50 (extra HCl = 1.7% mol), 20° C., 76 hr
  % aglycone: 0.59%
[2]; HCl to pH = 3.50 (extra HCl = 1.7% mol), 20° C., 124 hr
  % aglycone: 0.60%
[2]; [13]
  % aglycone: 0.61%
  % bis-anhydro: 0.01%
[2]; HCl to pH = 3.50 (extra HCl = 1.7% mol), 20° C., t = 0
  % aglycone: 0.59%
[2]; HCl to pH = 3.55 (extra HCl = 1.5% mol), 20° C., 22 hr
  % aglycone: 0.59%
[2]; HCl to pH = 3.55 (extra HCl = 1.5% mol), 20° C., 76 hr
  % aglycone: 0.59%
[2]; HCl to pH = 3.55 (extra HCl = 1.5% mol), 20° C., 124 hr
  % aglycone: 0.60%
[2]; [14]
  % aglycone: 0.61%
  % bis-anhydro: 0.01%
[2]; HCl to pH = 3.55 (extra HCl = 1.5% mol), 20° C., t = 0
  % aglycone: 0.59%
[2]; HCl to pH = 3.60 (extra HCl = 1.3% mol), 20° C., 22 hr
  % aglycone: 0.59%
[2]; HCl to pH = 3.60 (extra HCl = 1.3% mol), 20° C., 76 hr
  % aglycone: 0.59%
[2]; HCl to pH = 3.60 (extra HCl = 1.3% mol), 20° C., 124 hr
  % aglycone: 0.60%
[2]; [15]
  % aglycone: 0.61%
  % bis-anhydro: 0.01%
[2]; HCl to pH = 3.60 (extra HCl = 1.3% mol), 20° C., t = 0
  % aglycone: 0.59%
[2]; [16]
  % aglycone: 0.58%
  % bis-anhydro: 0.50%
[2]; [17]
  % aglycone: 0.58%
  % bis-anhydro: 0.74%
[2]; [18]
  % aglycone: 0.58%
  % bis-anhydro: 1.33%
[2]; NH3 1% mol, pH 6.56, 4° C., t = 0
  % aglycone: 0.59%
[2]; [19]
  % aglycone: 0.58%
  % bis-anhydro: 2.37%
[2]; [20]
  % aglycone: 0.58%
  % bis-anhydro: 3.56%
[2]; [21]
  % aglycone: 0.59%
  % bis-anhydro: 8.03%
[2]; NH3 1% mol, pH 6.56, 20° C., t = 0
  % aglycone: 0.59%
[2]; [22]
  % aglycone: 0.59%
  % bis-anhydro: 0.63%
[2]; [23]
  % aglycone: 0.59%
  % bis-anhydro: 1.87%
[2]; NH3 3% mol, pH 6.69, 4° C., t = 0
  % aglycone: 0.59%
[2]; [24]
  % aglycone: 0.60%
  % bis-anhydro: 3.00%
[2]; [25]
  % aglycone: 0.61%
  % bis-anhydro: 13.46%
[2]; NH3 3% mol, pH 6.69, 20° C., t = 0
  % aglycone: 0.59%
[2]; [26]
  % aglycone: 0.57%
  % bis-anhydro: 0.11%
[2]; [27]
  % aglycone: 0.57%
  % bis-anhydro: 0.30%
[2]; dissolved as is, pH 5.66, 4° C., t = 0
  % aglycone: 0.59%
[2]; [28]
  % aglycone: 0.57%
  % bis-anhydro: 0.41%
[2]; [29]
  % aglycone: 0.58%
  % bis-anhydro: 0.84%
[2]; [30]
  % aglycone: 0.58%
  % bis-anhydro: 1.20%
[2]; dissolved as is, pH 5.66, 20° C., t = 0
  % aglycone: 0.59%
[2]; lowest amount of aglycon and bis-anhydro impurities, constant over time even at 20° C.
  pH at which found to be most stable: 3.5
